Test results published in article PMC11436758, “Computer-aided drug design to generate a unique antibiotic family” (Nature Communications, 2024).
≈ marks a conversion by molar mass, not a printed value. Blank lines part the entries; values can stand above or below the compound they belong to.

Columns and labels:
AcpS = AcpS (Escherichia coli, UniProt P24224); assay: AcpS enzyme activity inhibition (IC50) by DNM compounds, [3H]acetyl-CoA / apo-ACP assay; assay type: biochemical; conditions: three individual replicates
Description: The acpP gene encoding ACP was amplified from E. coli genomic DNA and subcloned into the pGEX4T-1 vector. This construct drives the expression of glutathione S-transferase (GST) fused to the ACP open reading frame through a linker containing a consensus sequence for thrombin cleavage. The identity and veracity of acpP was verified by DNA sequencing. BL21 E. coli cells expressing GST-ACP were suspended in ice-cold phosphate buffer saline (PBS) and lysed by sonication. The lysate was made 1% Triton X-100 and rested on ice for 30 min with occasional mixing. A clear supernatant was isolated by centrifugation at 46,000 × g for 30 min, brought to 10 mM MgCl2 and 2 mM MnCl2 and incubated at room temperature for 1 h with occasional mixing. The supplementation of the lysate to 10 mM MgCl2 and 2 mM MnCl2 favors the activity of endogenous ACP phosphodiesterase (acpH) enriching the apo- fraction of GST-ACP. GST-ACP was affinity purified upon binding to glutathione-sepharose. The ACP moiety was eluted from the affinity resin by in-column thrombin digestion. Apo-ACP was separated from holo-ACP and acylated forms of ACP by ion-exchange chromatography on a Mono-Q 5/50 GL at pH 6.1 operated from an AKTA Pure 25 platform. The purity of the apo-ACP preparation was assessed by 20% PAGE on native gels containing 0.5 M urea.
The acpS gene was amplified from S. aureus and E. coli genomic DNA and inserted into a pET23b vector using standard recombinant DNA methodology such that the protein product would result in addition of a C-terminal 6x-His tag in frame with the AcpS open reading frames. The DNA sequences inserted in the vector were sequenced and found to be identical to the known E. coli and S. aureus acpS open reading frames. Recombinant His-Tagged AcpS expression was induced by IPTG addition and overnight culture. Cell lysate was obtained by sequential aspiration through 16, 18 and 21 G needles in a buffer of 50 mM Tris-HCl (pH 8.5), 10 mM MgCl2, 2 mM DTT, 5% glycerol, and further adjusted to pH 8.1 with MES. […] In a typical AcpS enzyme activity assay, 57 µM [^3H]acetyl-CoA, 2 µg apo-ACP, 10 mM MgCl2, 5 mM DTT, 50 mM Na phosphate (pH 7.0), and AcpS in a final volume of 10 µL were incubated at room temperature in a 1.5 mL microcentrifuge tube. At 5, 10, 15, and 20 min 2 µL of reaction were added to 750 µl 10% TCA on ice. Bovine serum albumin (BSA; 20 µl of a 25 mg/mL solution) was then added to facilitate precipitation of radiolabeled protein. The samples were centrifuged at 12,000 × g for 5 min. Supernatants were removed, and the pellets were rinsed twice with 750 µl of 10% trichloroacetic acid. Pellets were resuspended in 50 µl of formic acid and transferred to scintillation vials. 2 mL of scintillation fluid was added, and the amount of [^3H]-labeled holo-ACP formed was quantified by liquid scintillation counting. The enzymatic reaction proceeded in a linear manner depending on time (10–40 min) and enzyme concentration (1–5 nM). Routinely, each data point was determined at least by triplicate.

MRSA (ATCC 33591) [1] = assay: MIC, CLSI broth microdilution; assay type: cell-based, S. aureus; conditions: three individual replicates
Method: The medium employed for the assay was Mueller Hinton II Broth (MHB II; Becton-Dickinson, Sparks, MD, USA). Agar plates used for the organisms were trypticase soy agar plus 5% sheep blood (BD; Sparks, MD, USA). MIC assay plates were prepared using the CLSI broth microdilution procedure. Automated liquid handlers (Multidrop 384, Biomek 2000 and Biomek FX) were used to conduct serial dilutions and liquid transfers. A standardized inoculum of each organism was prepared per CLSI methods. Suspensions were prepared to equal a 0.5 McFarland standard, followed by a 1:20 dilution in test media. The inocula were dispensed into sterile reservoirs divided by length (Beckman Colter) and the Biomek 2000 was used to inoculate the plates. Daughter plates were placed on the Biomek 2000 work surface in reverse orientation so that inoculation took place from low to high drug concentration. The Biomek 2000 delivered 10 μL of the diluted suspension into each well. These inoculations yielded a final cell concentration in the daughter plates of ~5 × 10^5 colony-forming units/mL in each well. The wells of the daughter plates ultimately contained 185 μL of broth, 5 μL of drug solution, and 10 μL of bacterial inoculum. Plates were covered with a sterile lid on the top plate, placed in plastic bags, and incubated at 35 °C for ~18 h. The microplates were viewed from the bottom using a plate viewer and the MIC was read. The MIC was recorded as the lowest concentration of drug that inhibited visible growth of the organism. Uninoculated solubility control plates were also observed for evidence of drug precipitation.

MRSA (ATCC 33591) [2] = assay: Rabbit ischemic ear wound model of infection by MRSA, topical treatment; assay type: in vivo, New Zealand White rabbits; conditions: for reduction in bacterial survival as compared to vehicle control: quantitative microbiology at day 14, topical; for wound closure: topical for 14 days, versus vehicle control
Method: New Zealand White rabbits from Charles River were employed for this study. Both male and female rabbits were used; sample size prevented disaggregation of data by sex. Investigators were blinded to group allocation, data collection, and data analysis. Food and water were given ad libidum and animals were acclimatized for 7 days with photoperiods of alternating 12 h light and dark at 21 °C in relative humidity of 40–50%. The formulation for delivery of DNM compounds was Glaxal base (WellSpring Pharmaceutical Canada Corp., Oakville, Canada). Formulation was performed by dissolving compound in Glaxal base to give final concentrations of 1% or 2% DNM compound (w/v). The analgesic (Buprenex 0.02 mg/kg sc) and anesthesia (isoflurane (0.5–5% with oxygen carrier 0.5–2 L/min) were used as required during procedures. An ischemia wound healing model was conducted surgically. Each wound was inoculated with 50 μl of 2 × 10^7 CFU/mL MRSA (ATCC #33591) and dressed. After 1 day, wounds were treated with either 50 μl control cream containing vehicle or 50 μl cream containing compound daily. Wounds were assessed and observations recorded using the Draize scoring system. Digital photographs of each wound were obtained and documented.

AcpS, sequence (P24224 2-126): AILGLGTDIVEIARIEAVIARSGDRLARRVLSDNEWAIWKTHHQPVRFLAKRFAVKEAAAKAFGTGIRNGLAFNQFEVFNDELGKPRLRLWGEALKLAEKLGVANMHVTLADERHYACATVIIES

Compound: CCCCc1cccc(-c2sc(-c3nnn[nH]3)c(C)c2-c2cccc(CCCC)c2)c1 [DNM0627]
IC50 (AcpS): 10 µM
MIC (MRSA (ATCC 33591) [1]): 0.25 µg/mL (≈ 0.581 µM)

Compound: Cc1ccc(-c2sc(-c3ccc(Cl)cc3)cc2-c2nnn[nH]2)c2ccccc12 [DNM0473]
IC50 (AcpS): 10 µM
MIC (MRSA (ATCC 33591) [1]): 2 µg/mL (≈ 4.96 µM)

Compound: Cc1cc(Cl)ccc1-c1cc(-c2nnn[nH]2)sc1-c1ccc(Cl)cc1C [DNM0488]
IC50 (AcpS): 9 µM
MIC (MRSA (ATCC 33591) [1]): 2 µg/mL (≈ 4.98 µM)

Compound: Cc1ccc(-c2ccccc2-c2cc(-c3nnn[nH]3)c(-c3ccccc3-c3ccc(C)c(C)c3)s2)cc1C [DNM0495]
IC50 (AcpS): 10 µM
MIC (MRSA (ATCC 33591) [1]): 2 µg/mL (≈ 3.9 µM)

Compound: Clc1ccc(Cc2sc(-c3nnn[nH]3)cc2-c2cccc(CC3CCCC3)c2)cc1 [DNM0610]
IC50 (AcpS): 9 µM
MIC (MRSA (ATCC 33591) [1]): 1 µg/mL (≈ 2.3 µM)

Compound: CC(C)(C)c1ccc(-c2cc(-c3nnn[nH]3)sc2-c2ccc(C(C)(C)C)cc2)cc1 [DNM0546]
IC50 (AcpS): 16 µM
MIC (MRSA (ATCC 33591) [1]): 2 µg/mL (≈ 4.8 µM)

Compound: c1ccc(-c2ccccc2-c2cc(-c3nnn[nH]3)sc2-c2ccccc2-c2ccccc2)cc1 [DNM0489]
IC50 (AcpS): 10 µM
MIC (MRSA (ATCC 33591) [1]): 2 µg/mL (≈ 4.38 µM)

Compound: Clc1ccc(-c2cc(-c3nnn[nH]3)sc2-c2ccc(Cl)cc2)cc1 [DNM0487]
IC50 (AcpS): 1 µM
MIC (MRSA (ATCC 33591) [1]): 2 µg/mL (≈ 5.36 µM)
reduction in bacterial survival as compared to vehicle control (MRSA (ATCC 33591) [2]): > 99%
wound closure (MRSA (ATCC 33591) [2]): significantly improved wound closure

Compound: Cc1ccc(-c2sc(-c3ccccc3-c3ccccc3)cc2-c2nnn[nH]2)c2ccccc12 [DNM0472]
IC50 (AcpS): 10 µM
MIC (MRSA (ATCC 33591) [1]): 2 µg/mL (≈ 4.5 µM)

Compound: Cc1ccc(-c2cc(-c3nnn[nH]3)c(-c3ccccc3-c3ccccc3)s2)c2ccccc12 [DNM0478]
IC50 (AcpS): 8 µM
MIC (MRSA (ATCC 33591) [1]): 1 µg/mL (≈ 2.25 µM)

MIC (MRSA (ATCC 33591) [1]): 0.5 µg/mL (≈ 1.17 µM)
Compound: Cc1ccc(-c2cc(-c3nnn[nH]3)cc(-c3ccc(C)c4ccccc34)c2)c2ccccc12 [DNM0461]

MIC (MRSA (ATCC 33591) [1]): 2 µg/mL (≈ 5.36 µM)
Compound: Clc1ccc(-c2cc(-c3nnn[nH]3)c(-c3ccc(Cl)cc3)s2)cc1 [DNM0213]

Compound: Clc1ccc(-c2cc(-c3nnn[nH]3)cc(-c3ccccc3-c3ccccc3)c2)cc1 [DNM0479]
IC50 (AcpS): 9 µM
MIC (MRSA (ATCC 33591) [1]): 1 µg/mL (≈ 2.45 µM)

Compound: c1ccc2c(c1)oc1c(-c3cc(-c4nnn[nH]4)sc3-c3cccc4c3oc3ccccc34)cccc12 [DNM0542]
IC50 (AcpS): 12 µM
MIC (MRSA (ATCC 33591) [1]): 1 µg/mL (≈ 2.06 µM)

Compound: Cc1ccc(-c2cc(-c3ccc(Cl)cc3)cc(-c3nnn[nH]3)c2)c2ccccc12 [DNM0480]
IC50 (AcpS): 8 µM
MIC (MRSA (ATCC 33591) [1]): 2 µg/mL (≈ 5.04 µM)

Compound: CC(C)c1cc(Cl)ccc1-c1cc(C(=O)O)sc1-c1ccc(Cl)cc1C(C)C [DNM0566]
IC50 (AcpS): 13 µM
MIC (MRSA (ATCC 33591) [1]): 1 µg/mL (≈ 2.31 µM)

Compound: CC(C)c1cc(Cl)ccc1-c1cc(-c2nnn[nH]2)sc1-c1ccc(Cl)cc1C(C)C [DNM0548]
IC50 (AcpS): 8 µM
MIC (MRSA (ATCC 33591) [1]): 2 µg/mL (≈ 4.37 µM)

Compound: c1ccc(-c2cc(-c3nnn[nH]3)sc2-c2ccccc2-c2ccsc2)c(-c2ccsc2)c1 [DNM0559]
IC50 (AcpS): 9 µM
MIC (MRSA (ATCC 33591) [1]): 1 µg/mL (≈ 2.13 µM)

Compound: Cc1cc(Cl)ccc1-c1sc(-c2nnn[nH]2)c(C)c1-c1ccc(Cl)cc1C [DNM0614]
IC50 (AcpS): 13 µM
MIC (MRSA (ATCC 33591) [1]): 1 µg/mL (≈ 2.41 µM)
reduction in bacterial survival as compared to vehicle control (MRSA (ATCC 33591) [2]): > 99%
wound closure (MRSA (ATCC 33591) [2]): significantly improved wound closure

Compound: CCCCc1cccc(-c2cc(-c3nnn[nH]3)sc2Cc2ccccc2)c1 [DNM0626]
IC50 (AcpS): 9 µM
MIC (MRSA (ATCC 33591) [1]): 0.5 µg/mL (≈ 1.34 µM)

Compound: Clc1cccc(-c2ccccc2-c2cc(-c3nnn[nH]3)cc(-c3ccccc3-c3cccc(Cl)c3)c2)c1 [DNM0493]
IC50 (AcpS): 14 µM
MIC (MRSA (ATCC 33591) [1]): 2 µg/mL (≈ 3.85 µM)

Compound: c1ccc(-c2ccccc2-c2cc(-c3nnn[nH]3)cc(-c3ccccc3-c3ccccc3)c2)cc1 [DNM0464]
IC50 (AcpS): 9 µM
MIC (MRSA (ATCC 33591) [1]): 0.5 µg/mL (≈ 1.11 µM)

Compound: Cc1ccc(-c2cc(-c3nnn[nH]3)sc2[C@@H]2CCCc3ccccc32)c2ccccc12 [DNM0636]
IC50 (AcpS): 13 µM
MIC (MRSA (ATCC 33591) [1]): 2 µg/mL (≈ 4.73 µM)

Compound: Clc1ccc(-c2sc(-c3ccccc3-c3ccccc3)cc2-c2nnn[nH]2)cc1 [DNM0466]
IC50 (AcpS): 9 µM
MIC (MRSA (ATCC 33591) [1]): 1 µg/mL (≈ 2.41 µM)
